The source of these data is patent US10342758B2, “Cationic lipid” (Kyowa Hakko Kirin Co., Ltd., priority 2012, dated 2019).

Data set [1] is described as follows: Average particle diameter of preparation (Zetasizer Nano ZS). Type of data set: physicochemical. To be noted: preparation with apo-b siRNA; compound/PEG-DMPE Na/DSPC/cholesterol; Example 49 / Comparative Example 1.
The next data set relates to apo-b gene mRNA. Nature of the data set: Expression ratio of apo-b mRNA after introduction of preparations into HepG2 cells. Type of data set: cell-based, human. The conditions noted are these: nucleic acid 3 to 100 nM, 24 hours, composition with apo-b siRNA (FIG. 1). The text has this:
Each of the preparation: obtained in Example 49 (the compositions containing any of Compounds A-1, and A-3 to A-5, and the nucleic acid) and the preparations obtained in Comparative Example 1 (the compositions containing any of DLin-KC2-DMA and Compounds XI-1 to XI-3, and the nucleic acid) was introduced into cells of human liver cancer-derived cell line HepG2 (HB-8065) by the following method.
Each preparation diluted with Opti-MEM (GIBCO Co., Ltd., 31985) so that the final concentration of the nucleic acid was 3 to 100 nM was dispensed in a 96-well culture plate at 20 μL/well. […]
By using the obtained cDNA as a template and also using a universal probe library (Roche Applied Science, Inc., 04683633001) as the probe and ABI7900HT Fast (manufactured by ABI, Inc.), a PCR reaction was performed according to the method described in the protocol attached thereto, so that the apo-b gene and D-glyceraldehyde-3-phosphate dehydrogenase (hereinafter, represented by “gapdh”) gene, which is a constitutively expressed gene, were subjected to the PCR reaction. Then, the amount of the amplified mRNA was measured for each gene, and a quasi-quantitative value of the apo-b mRNA was calculated using the amount of the amplified gapdh mRNA as the internal control. […]

Data set [2] can be described thus: Average particle diameter of preparation (Zetasizer Nano ZS). Type of data set: physicochemical. To be noted: preparation with f7 siRNA. Here is the method: The average particle diameter of each preparation (composition) was measured using a particle diameter measurement device (Zetasizer Nano ZS, manufactured by Malvern, hereafter the same).
The average particle diameter of each preparation (composition) was measured using a particle diameter measurement device.
Each sample was weighed and suspended in an aqueous solution containing hydrochloric acid and ethanol so that the ratio of Compound A-1/PEG-DMPE Na (manufactured by NOF Corporation) was 57.3/5.52 mmol/L, and then, the resulting mixture was repeatedly subjected to stirring using a vortex stirring mixer and heating, whereby a uniform suspension was obtained. This suspension was passed through a 0.2-μm polycarbonate membrane filter and thereafter passed through a 0.05-μm polycarbonate membrane filter at room temperature, whereby a dispersion liquid of particles (liposome) of Compound A-1/PEG-DMPE Na was obtained. The average particle diameter of the obtained liposome was measured using a particle diameter measuring apparatus to confirm that the average particle diameter was within the range from 30 nm to 100 nm. In the obtained dispersion liquid of liposome, the f7 siRNA solution was mixed at a ratio of the dispersion liquid of liposome to the fl siRNA solution of 3:1, and then, distilled water that was three times the amount was added thereto and mixed therewith, whereby a dispersion liquid of Compound A-1/PEG-DMPE Na/f7 siRNA complex was prepared.
The average particle diameter of the preparation (composition) was measured using a particle diameter measurement device.

The mark [3] stands for this setting: compound/PEG-DMPE Na/DSPC/cholesterol, Examples 50, 51 / Comparative Example 2.
[4] abbreviates: liposome/siRNA complex encapsulated by lipid membrane, Examples 52, 53 / Comparative Example 3.

Regarding `CCCCCC/C=C\CCCCCCCCN(CCCCCCCC/C=C\CCCCCC)C(=O)OCCCN(C)C` [Compound A-3, 3-(Dimethylamino)propyl di(Z)-hexadec-9-enyl) carbamate], in data set [1], the “Particle diameter of Preparation obtained” value (from here on “Particle diameter”) worked out at 150.0 nm.

`CCCCC/C=C\C/C=C\CCCCCCCCN(CCCCCCCC/C=C\C/C=C\CCCCC)C(=O)CCCCN(C)C` [Compound XI-2, 5-(Dimethylamino)-N,N-di((9Z,12Z)-octadeca-9,12-dienyl)pentanamide]: the “expression of the apo-b gene mRNA” value in the data set with apo-b gene mRNA is given as “did not suppress the expression of the apo-b gene mRNA”.

Turning to `CCCCC/C=C\C/C=C\CCCCCCCCN(CCCCCCCC/C=C\C/C=C\CCCCC)CC(O)CO` (stereo not drawn) [Compound XI-7, 3-(Di((9Z,12Z)-octadeca-9,12-dienyl)amino)propane-1,2-diol, reference compound], the “Particle diameter” value in data set [2] (setting [3]) came out at 142.8 nm.

On to `CCCCC/C=C\C/C=C\CCCCCCCCN(CCCCCCCCCC)C(=O)OCCCN(C)C` [Compound A-10, 3-(Dimethylamino)propyl decyl((9Z,12Z)-octadeca-9,12-dienyl)carbamate], for which the “Particle diameter” value in data set [2] (setting [3]) is listed as 148.7 nm; in data set [2] (compound/PEG-DMPE Na/DSPC/cholesterol=7.030/0.755/2.038/4.892 mmol/L, Example 54) it was 156.2 nm; in data set [2] (setting [4]) it was 123.1 nm.

Regarding `CCCCC/C=C\C/C=C\CCCCCCCCN(CCCCCCCC/C=C\C/C=C\CCCCC)C(=O)OCC1CCCN1C` (stereo not drawn) [Compound A-21, (1-Methylpyrrolidin-2-yl)methyl di((9Z,12Z)-octadeca-9,12-dien-1-yl)carbamate], the “Particle diameter” value is reported as 141.0 nm in data set [2] (setting [3]) and 104.8 nm in data set [2] (setting [4]).

`CCCCC/C=C\C/C=C\CCCCCCCCOCCN(CCCCCCCC/C=C\C/C=C\CCCCC)C(=O)OCC1CCCN(C)C1` (stereo not drawn) [Compound A-32, (1-Methylpiperidin-3-yl)methyl ((9Z,12Z)-octadeca-9,12-dienyl)(2-((Z,12Z)-octadeca-9,12-dienyloxy)ethyl)carbamate]: the results for the “Particle diameter” value in data set [2] (setting [3]) and in data set [2] (setting [4]) were 124.6 nm and 101.4 nm, respectively.

Regarding `CCCCCCCC/C=C\CCCCCCCCN(CCCCCCCC/C=C\CCCCCCCC)C(=O)OCC1CCCN(C)C1` (stereo not drawn) [Compound A-18, (1-Methylpiperidin-3-yl)methyl di((Z)-octadec-9-enyl)carbamate], the “Particle diameter” value in data set [2] (setting [3]) was 138.4 nm; in data set [2] (setting [4]) it was 112.0 nm.

With `CCCCC/C=C\C/C=C\CCCCCCCCN(CCCCCCCC/C=C\C/C=C\CCCCC)C(=O)OCC1CCCN(C)C1` (stereo not drawn) [Compound A-15], the figures for the “Particle diameter” value in data set [2] (setting [3]) and in data set [2] (setting [4]) were 124.0 nm and 98.4 nm, respectively.

`CCCCC/C=C\C/C=C\CCCCCCCCN(CCCCCCCC/C=C\C/C=C\CCCCC)C(=O)OCC1CCN(C)CC1` [Compound A-14, (1-Methylpiperidin-4-yl)methyl di((9Z,12Z)-octadeca-9,12-dien-1-yl)carbamate]: the “Particle diameter” value in data set [2] (setting [3]) worked out at 134.4 nm; in data set [2] (setting [4]) it was 99.7 nm.

On to `CCCCC/C=C\C/C=C\CCCCCCCCN(CCCCO)CCCCCCCC/C=C\C/C=C\CCCCC` [Compound C-5, 4-(Di((9Z,12Z)-octadeca-9,12-dienyl)amino)butan-1-ol], for which the “Particle diameter” value is on record as 134.9 nm in data set [2] (setting [3]) and 96.4 nm in data set [2] (setting [4]).
